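Assay format: 96-well plates, 48-hour exposure. The concentration for full growth arrest is given as TGI.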

One test deals with MOLT-4 leukemia. Briefly: NCI anticancer screen, dose series, 48 h.
In the case of `C=C1C(=O)C23C(O)CC4C5(C)CCCC4(C(O)OC5)C2C(OC(C)=O)CC1C3O` (stereo unspecified), the TGI turned out to be 17 µM.

The compound `O=C1CNS(=O)(=O)N1` returned a TGI of more than 100 µM.

As to `COc1ccc(-c2c(C3=NCCCN3)nnn2-c2ccc([N+](=O)[O-])cc2)cc1`, the TGI was more than 100 µM.

The test system of the next test is HOP-18 NSCLC. Briefly: NCI anticancer screen, dose series, 48 h.
With `c1ccc2c(c1)CCCC/C2=N/OCC1CO1` (stereo unspecified), the TGI was more than 100 µM.

In turn, `C=C1C(=O)C23C(O)CC4C5(C)CCCC4(C(O)OC5)C2C(OC(C)=O)CC1C3O` (stereo unspecified) came in with a TGI of 30.4 µM.

As for `COc1ccc(-c2c(C3=NCCCN3)nnn2-c2ccc([N+](=O)[O-])cc2)cc1`, the TGI was more than 100 µM.

The subject of a further test is COLO 205 colon. The experiment in a line: NCI anticancer screen, dose series, 48 h.
`c1ccc2c(c1)CCCC/C2=N/OCC1CO1` (stereo unspecified) returned a TGI of more than 100 µM.

The compound `C=C1C(=O)C23C(O)CC4C5(C)CCCC4(C(O)OC5)C2C(OC(C)=O)CC1C3O` (stereo unspecified) yielded a TGI of 18.9 µM.

Turning to `O=C1CNS(=O)(=O)N1`, the TGI was more than 100 µM.

In turn, `COc1ccc(-c2c(C3=NCCCN3)nnn2-c2ccc([N+](=O)[O-])cc2)cc1` yielded a TGI of more than 100 µM.

The test system of a further test is SK-OV-3 ovarian. Briefly: NCI anticancer screen, dose series, 48 h.
Regarding `C=C1C(=O)C23C(O)CC4C5(C)CCCC4(C(O)OC5)C2C(OC(C)=O)CC1C3O` (stereo unspecified), the TGI is 37.1 µM.

Regarding `O=C1CNS(=O)(=O)N1`, the TGI is more than 100 µM.

In the case of `COc1ccc(-c2c(C3=NCCCN3)nnn2-c2ccc([N+](=O)[O-])cc2)cc1`, the TGI was more than 100 µM.

In a further test the test system is U251 CNS. Briefly: NCI anticancer screen, dose series, 48 h.
`c1ccc2c(c1)CCCC/C2=N/OCC1CO1` (stereo unspecified) had a TGI of more than 100 µM.

As for `C=C1C(=O)C23C(O)CC4C5(C)CCCC4(C(O)OC5)C2C(OC(C)=O)CC1C3O` (stereo unspecified), the TGI is 30.7 µM.

Turning to `COc1ccc(-c2c(C3=NCCCN3)nnn2-c2ccc([N+](=O)[O-])cc2)cc1`, the TGI was more than 100 µM.

Another test concerns TK-10 renal. The experiment in a line: NCI anticancer screen, dose series, 48 h.
`c1ccc2c(c1)CCCC/C2=N/OCC1CO1` (stereo unspecified) registered a TGI of more than 100 µM.

In the case of `C=C1C(=O)C23C(O)CC4C5(C)CCCC4(C(O)OC5)C2C(OC(C)=O)CC1C3O` (stereo unspecified), the TGI worked out at 23.1 µM.

Consider `O=C1CNS(=O)(=O)N1`, for which the TGI is more than 100 µM.

`COc1ccc(-c2c(C3=NCCCN3)nnn2-c2ccc([N+](=O)[O-])cc2)cc1` registered a TGI of more than 100 µM.

The next test relates to SK-MEL-28 melanoma. The experiment in a line: NCI anticancer screen, dose series, 48 h.
As for `c1ccc2c(c1)CCCC/C2=N/OCC1CO1` (stereo unspecified), the TGI is more than 100 µM.

`C=C1C(=O)C23C(O)CC4C5(C)CCCC4(C(O)OC5)C2C(OC(C)=O)CC1C3O` (stereo unspecified) registered a TGI of 22.7 µM.

On to `O=C1CNS(=O)(=O)N1`, for which the TGI was more than 100 µM.

With `COc1ccc(-c2c(C3=NCCCN3)nnn2-c2ccc([N+](=O)[O-])cc2)cc1`, the TGI was more than 100 µM.

The subject of a further test is M14 melanoma. Briefly: NCI anticancer screen, dose series, 48 h.
Take `C=C1C(=O)C23C(O)CC4C5(C)CCCC4(C(O)OC5)C2C(OC(C)=O)CC1C3O` (stereo unspecified): the TGI came to 15.1 µM.

The compound `O=C1CNS(=O)(=O)N1` registered a TGI of more than 100 µM.

As for `COc1ccc(-c2c(C3=NCCCN3)nnn2-c2ccc([N+](=O)[O-])cc2)cc1`, the TGI is more than 100 µM.

For a further test, the system named is OVCAR-3 ovarian. Briefly: NCI anticancer screen, dose series, 48 h.
With `C=C1C(=O)C23C(O)CC4C5(C)CCCC4(C(O)OC5)C2C(OC(C)=O)CC1C3O` (stereo unspecified), the TGI amounted to 28.2 µM.

For `O=C1CNS(=O)(=O)N1`, the TGI was more than 100 µM.

`COc1ccc(-c2c(C3=NCCCN3)nnn2-c2ccc([N+](=O)[O-])cc2)cc1` showed a TGI of more than 100 µM.

A further test concerns SF-268 CNS. The experiment in a line: NCI anticancer screen, dose series, 48 h.
Compound `c1ccc2c(c1)CCCC/C2=N/OCC1CO1` (stereo unspecified) yielded a TGI of more than 100 µM.

In the case of `C=C1C(=O)C23C(O)CC4C5(C)CCCC4(C(O)OC5)C2C(OC(C)=O)CC1C3O` (stereo unspecified), the TGI is 32.4 µM.

`O=C1CNS(=O)(=O)N1` yielded a TGI of more than 100 µM.

`COc1ccc(-c2c(C3=NCCCN3)nnn2-c2ccc([N+](=O)[O-])cc2)cc1` showed a TGI of more than 100 µM.

The next test has as its system UACC-257 melanoma. Briefly: NCI anticancer screen, dose series, 48 h.
Compound `c1ccc2c(c1)CCCC/C2=N/OCC1CO1` (stereo unspecified) showed a TGI of more than 100 µM.

`O=C1CNS(=O)(=O)N1` gave a TGI of more than 100 µM.

Take `COc1ccc(-c2c(C3=NCCCN3)nnn2-c2ccc([N+](=O)[O-])cc2)cc1`: the TGI is more than 100 µM.

For the next test, the system named is NCI-H460 lung. The experiment in a line: NCI anticancer screen, dose series, 48 h.
`c1ccc2c(c1)CCCC/C2=N/OCC1CO1` (stereo unspecified) yielded a TGI of more than 100 µM.

For the compound `C=C1C(=O)C23C(O)CC4C5(C)CCCC4(C(O)OC5)C2C(OC(C)=O)CC1C3O` (stereo unspecified), the TGI amounted to 15.9 µM.

`COc1ccc(-c2c(C3=NCCCN3)nnn2-c2ccc([N+](=O)[O-])cc2)cc1`: the TGI was more than 100 µM.

A further test has as its system A498 renal. Briefly: NCI anticancer screen, dose series, 48 h.
Turning to `c1ccc2c(c1)CCCC/C2=N/OCC1CO1` (stereo unspecified), the TGI is more than 100 µM.

Take `O=C1CNS(=O)(=O)N1`: the TGI was more than 100 µM.

Take `COc1ccc(-c2c(C3=NCCCN3)nnn2-c2ccc([N+](=O)[O-])cc2)cc1`: the TGI is more than 100 µM.

The subject of another test is NCI-H23 lung. The experiment in a line: NCI anticancer screen, dose series, 48 h.
Turning to `c1ccc2c(c1)CCCC/C2=N/OCC1CO1` (stereo unspecified), the TGI is more than 100 µM.

For the compound `C=C1C(=O)C23C(O)CC4C5(C)CCCC4(C(O)OC5)C2C(OC(C)=O)CC1C3O` (stereo unspecified), the TGI was 19.3 µM.

As for `O=C1CNS(=O)(=O)N1`, the TGI is more than 100 µM.

Compound `COc1ccc(-c2c(C3=NCCCN3)nnn2-c2ccc([N+](=O)[O-])cc2)cc1` gave a TGI of more than 100 µM.

A further test deals with HOP-62 NSCLC. Briefly: NCI anticancer screen, dose series, 48 h.
Take `C=C1C(=O)C23C(O)CC4C5(C)CCCC4(C(O)OC5)C2C(OC(C)=O)CC1C3O` (stereo unspecified): the TGI amounted to 32.2 µM.

The compound `O=C1CNS(=O)(=O)N1` gave a TGI of more than 100 µM.

Regarding `COc1ccc(-c2c(C3=NCCCN3)nnn2-c2ccc([N+](=O)[O-])cc2)cc1`, the TGI is more than 100 µM.

Another test has as its system MALME-3M melanoma. Briefly: NCI anticancer screen, dose series, 48 h.
Compound `c1ccc2c(c1)CCCC/C2=N/OCC1CO1` (stereo unspecified) returned a TGI of more than 100 µM.

(Values after PubChem BioAssay (NCI).)
